# Data reported in patent publication US20090036420A1, “BENZAMIDE DERIVATIVES AND THEIR USE FOR TREATING CNS DISORDERS” (priority 2007, published 2009).
# Target: T1, TAAR1 (Mus musculus, UniProt Q923Y8)
# T1 construct: expressed in transfected cells; host or cells: HEK293 cells (ATCC #CRL-1573), stably transfected with pIRESneo2 expression plasmid; membrane preparation
# Test: Radioligand binding assay on membranes of HEK293 cells stably expressing TAAR1
# Settings: Ki value (μM) in mouse, radioligand [3H]-rac-2-(1,2,3,4-tetrahydro-1-naphthyl)-2-imidazoline 60 nM, 4° C., 30 min
# Description: The Expand High Fidelity PCR System (Roche Diagnostics) was used with 1.5 mM Mg^2+ and purified PCR products were cloned into pCR2.1-TOPO cloning vector (Invitrogen) following the instructions of the manufacturer. PCR products were subcloned into the pIRESneo2 vector (BD Clontech, Palo Alto, Calif.), and expression vectors were sequence verified before introduction in cell lines.
# For the generation of stably transfected cell lines HEK293 cells were transfected with the pIRESneo2 expression plasmids containing the TAAR coding sequences (described above) with Lipofectamine 2000 (Invitrogen) according to the instructions of the manufacturer, and 24 hrs post transfection the culture medium was supplemented with 1 mg/ml G418 (Sigma, Buchs, Switzerland). After a culture period of about 10 d clones were isolated, expanded and tested for responsiveness to trace amines (all compounds purchased from Sigma) with the cAMP Biotrak Enzyme immunoassay (EIA) System (Amersham) following the non-acetylation EIA procedure provided by the manufacturer.
# Cells at confluence were rinsed with ice-cold phosphate buffered saline without Ca^2+ and Mg^2+ containing 10 mM EDTA and pelleted by centrifugation at 1000 rpm for 5 min at 4° C. The pellet was then washed twice with ice-cold phosphate buffered saline and cell pellet was frozen immediately by immersion in liquid nitrogen and stored until use at −80° C. Cell pellet was then suspended in 20 ml HEPES-NaOH (20 mM), pH 7.4 containing 10 mM EDTA, and homogenized with a Polytron (PT 3000, Kinematica) at 10,000 rpm for 10 s. The homogenate was centrifuged at 48,000×g for 30 min at 4° C. and the pellet resuspended in 20 ml HEPES-NaOH (20 mM), pH 7.4 containing 0.1 mM EDTA (buffer A), and homogenized with a Polytron at 10,000 rpm for 10 s. The homogenate was then centrifuged at 48,000×g for 30 min at 4° C. and the pellet resuspended in 20 ml buffer A, and homogenized with a Polytron at 10,000 rpm for 10 s. Protein concentration was determined by the method of Pierce (Rockford, Ill.). […] Non-specific binding was defined as the amount of [^3H]-rac-2-(1,2,3,4-tetrahydro-1-naphthyl)-2-imidazoline bound in the presence of the appropriate unlabelled ligand (10 μM). Competing ligands were tested in a wide range of concentrations (10 pM-30 μM). […] Each experiment was performed in duplicate. All incubations were terminated by rapid filtration through UniFilter-96 plates (Packard Instrument Company) and glass filter GF/C, pre-soaked for at least 2 h in polyethylenimine 0.3%, and using a Filtermate 96 Cell Harvester (Packard Instrument Company). The tubes and filters were then washed 3 times with 1 ml aliquots of cold buffer B. Filters were not dried and soaked in Ultima gold (45 μl/well, Packard Instrument Company) and bound radioactivity was counted by a TopCount Microplate Scintillation Counter (Packard Instrument Company).
# T1 sequence (Q923Y8 whole entry): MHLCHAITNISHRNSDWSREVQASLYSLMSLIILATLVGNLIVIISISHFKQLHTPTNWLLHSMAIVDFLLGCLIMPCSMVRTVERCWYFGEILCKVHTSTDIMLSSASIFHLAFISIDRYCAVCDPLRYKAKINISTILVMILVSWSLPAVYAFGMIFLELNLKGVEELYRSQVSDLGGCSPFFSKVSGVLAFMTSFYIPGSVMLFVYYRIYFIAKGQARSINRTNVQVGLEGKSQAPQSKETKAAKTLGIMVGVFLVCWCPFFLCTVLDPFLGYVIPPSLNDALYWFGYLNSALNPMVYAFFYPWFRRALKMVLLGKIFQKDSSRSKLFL
row,Structure (SMILES),Ki [µM]
1,"CCCCNc1ccc(C(=O)Nc2cccc(OC)c2)cc1C(F)(F)F [Example 145, 4-Butylamino-N-(3-methoxy-phenyl)-3-trifluoromethyl-benzamide]",0.01
2,COc1cccc(NC(=O)c2cnc(NC(C)C)c(C(F)(F)F)c2)c1 [Example 200],0.0597
3,"COc1cccc(NC(=O)c2cccc(S(=O)(=O)N3CCCCCC3)c2)c1 [Example 170, 3-(Azepane-1-sulfonyl)-N-(3-methoxy-phenyl)-benzamide]",0.024
4,"COc1cccc(NC(=O)c2ccc(N3CCOCC3)c(C(F)(F)F)c2)c1 [Example 150, N-(3-Methoxy-phenyl)-4-morpholin-4-yl-3-trifluoromethyl-benzamide]",0.086
5,"O=C(Nc1cccc(Cl)c1)c1ccc(N2CCCC2)c(C(F)(F)F)c1 [Example 186, N-(3-Chloro-phenyl)-4-pyrrolidin-1-yl-3-trifluoro-methyl-benzamide]",0.02
6,"CC1CCN(c2ncc(C(=O)Nc3cccc(Cl)c3)cc2Cl)CC1 [Example 155, 3′-Chloro-4-methyl-3,4,5,6-tetrahydro-2H-[1,2′]bipyridinyl-5′-carboxylicacid (3-chloro-phenyl)-amide]",0.023
7,"O=C(Nc1cccc(Cl)c1)c1cnc(N2CCC2)c(Cl)c1 [Example 162, 6-Azetidin-1-yl-5-chloro-N-(3-chloro-phenyl)-nicotinamide]",0.042
8,"CCCNc1ncc(C(=O)Nc2cccc(Cl)c2)cc1Cl [Example 157, 5-Chloro-N-(3-chloro-phenyl)-6-propylamino-nicotinamide]",0.011
9,"CC(C)c1cccc(NC(=O)c2ccc(N3CCCC3)c(C(F)(F)F)c2)c1 [Example 182, N-(3-Isopropyl-phenyl)-4-pyrrolidin-1-yl-3-trifluoro-methyl-benzamide]",0.065

# Same assay, conditions: radioligand [3H]-rac-2-(1,2,3,4-tetrahydro-1-naphthyl)-2-imidazoline 60 nM, 4° C., 30 min, read-out: Ki value (μM) in mouse
row,Structure (SMILES),Ki [µM]
1,"COc1cccc(NC(=O)c2ccc(N3CCC(C)CC3)c(C(F)(F)F)c2)c1 [Example 143, N-(3-Methoxy-phenyl)-4-(4-methyl-piperidin-1-yl)-3-trifluoromethyl-benzamide]",0.007
2,"CCCNc1ccc(C(=O)Nc2cccc(OC)c2)cc1[N+](=O)[O-] [Example 87, N-(3-Methoxy-phenyl)-3-nitro-4-propylamino-benzamide]",0.004
3,COc1cccc(NC(=O)c2cnc(N3CCC(C)CC3)c(C(F)(F)F)c2)c1 [Example 201],0.0017
4,"CCOc1cccc(NC(=O)c2ccc(N3CCCC3)c(C(F)(F)F)c2)c1 [Example 181, N-(3-Ethoxy-phenyl)-4-pyrrolidin-1-yl-3-trifluoro-methyl-benzamide]",0.001
5,"COc1cccc(NC(=O)c2ccc(N3CCC(C#N)CC3)c(C(F)(F)F)c2)c1 [Example 196, 4-(4-Cyano-piperidin-1-yl)-N-(3-methoxy-phenyl)-3-trifluoromethyl-benzamide]",0.022
6,"CC(C)Oc1cccc(NC(=O)c2ccc(N3CCCC3)c(C(F)(F)F)c2)c1 [Example 183, N-(3-Isopropoxy-phenyl)-4-pyrrolidin-1-yl-3-trifluoro-methyl-benzamide]",0.007
7,"COc1cccc(NC(=O)c2ccc(N3CCC(C)CC3)c([N+](=O)[O-])c2)c1 [Example 27, N-(3-Methoxy-phenyl)-4-(4-methyl-piperidin-1-yl)-3-nitro-benzamide]",0.002
8,"COc1cccc(NC(=O)c2ccc(N3CCC(C(F)(F)F)CC3)c(C(F)(F)F)c2)c1 [Example 197, N-(3-Methoxy-phenyl)-3-trifluoromethyl-4-(4-trifluoromethyl-piperidin-1-yl)-benzamide]",0.003
9,"COc1cccc(NC(=O)c2ccc(Br)c([N+](=O)[O-])c2)c1 [Example 42, 4-Bromo-N-(3-methoxy-phenyl)-3-nitro-benzamide]",0.021
10,"CCCNc1ccc(C(=O)Nc2cccc(OC)c2)cc1C(F)(F)F [Example 144, N-(3-Methoxy-phenyl)-4-propylamino-3-trifluoromethyl-benzamide]",0.032
11,"CC(=O)c1cccc(NC(=O)c2ccc(N3CCCC3)c(C(F)(F)F)c2)c1 [Example 184, N-(3-Acetyl-phenyl)-4-pyrrolidin-1-yl-3-tri-fluoromethyl-benzamide]",0.026
12,"COc1cccc(NC(=O)c2ccc(NC(C)C)c([N+](=O)[O-])c2)c1 [Example 91, 4-Isopropylamino-N-(3-methoxy-phenyl)-3-nitro-benzamide]",0.012
13,"COc1cccc(NC(=O)c2ccc(N3CCCCCC3)c(C(F)(F)F)c2)c1 [Example 195, 4-Azepan-1-yl-N-(3-methoxy-phenyl)-3-trifluoromethyl-benzamide]",0.011
14,"COc1cccc(NC(=O)c2ccc(N3CCCCC3)c(C(F)(F)F)c2)c1 [Example 141, N-(3-Methoxy-phenyl)-4-piperidin-1-yl-3-trifluoromethyl-benzamide]",0.038
15,COc1cccc(NC(=O)c2cnc(N3CCC(C)CC3)c(Cl)c2)c1 [Example 207],0.0098
16,"O=C(Nc1cccc(OC(F)(F)C(F)F)c1)c1ccc(N2CCCC2)c(C(F)(F)F)c1 [Example 192, 4-Pyrrolidin-1-yl-N-[3-(1,1,2,2-tetrafluoro-ethoxy)-phenyl]-3-trifluoro-methyl-benzamide]",0.039
17,"COc1cccc(NC(=O)c2ccc(N3CCC3)c([N+](=O)[O-])c2)c1 [Example 92, 4-Azetidin-1-yl-N-(3-methoxy-phenyl)-3-nitro-benzamide]",0.029
18,"COc1cccc(NC(=O)c2ccc(Cl)c([N+](=O)[O-])c2)c1 [Example 12, 4-Chloro-N-(3-methoxy-phenyl)-3-nitro-benzamide]",0.037

# Now from value to compound:
row,Ki [µM],Structure (SMILES)
1,0.022,"COc1cccc(NC(=O)c2ccc(NC(C)C)c(C(F)(F)F)c2)c1 [Example 149, 4-Isopropylamino-N-(3-methoxy-phenyl)-3-trifluoromethyl-benzamide]"
2,0.079,"O=C(Nc1cccc(Cl)c1)c1cnc(Cl)c(Cl)c1 [Example 47, 5,6-Dichloro-N-(3-chloro-phenyl)-nicotinamide]"
3,0.067,"O=C(Nc1ccccc1)c1ccc([N+](=O)[O-])c(C(F)(F)F)c1 [Example 219, 3-Trifluoromethyl-4-nitro-N-phenyl-benzamide]"
4,0.005,"COc1cccc(NC(=O)c2ccc(NCc3ccccc3)c([N+](=O)[O-])c2)c1 [Example 88, 4-Benzylamino-N-(3-methoxy-phenyl)-3-nitro-benzamide]"
5,0.024,"CCNc1ccc(C(=O)Nc2cccc(OC)c2)cc1[N+](=O)[O-] [Example 90, 4-Ethylamino-N-(3-methoxy-phenyl)-3-nitro-benzamide]"
6,0.049,"Cc1cnc(C)n1Cc1cccc(NC(=O)c2ccc(Cl)c(Cl)c2)c1 [Example 177, 3,4-Dichloro-N-[3-(2,5-dimethyl-imidazol-1-ylmethyl)-phenyl]-benzamide]"
7,0.009,"CN1CCN(c2ccc(C(=O)Nc3cccc(Cl)c3)cn2)CC1 [Example 135, N-(3-Chloro-phenyl)-6-(4-methyl-piperazin-1-yl)-nicotinamide]"
8,0.048,"COc1cccc(NC(=O)c2cnc(Cl)c(Cl)c2)c1 [Example 78, 5,6-Dichloro-N-(3-methoxy-phenyl)-nicotinamide]"
9,0.0101,COc1cccc(NC(=O)c2cnc(N3CCCC3)c(Cl)c2)c1 [Example 205]
10,0.054,"O=C(Nc1ccccc1)c1ccc(Cl)c(Cl)c1 [Example 217, 3,4-Dichloro-N-phenyl-benzamide]"
11,0.076,"O=C(Nc1cccc(Cl)c1)c1ccc(N2CCNCC2)nc1 [Example 84, N-(3-Chloro-phenyl)-6-piperazin-1-yl-nicotinamide]"
12,0.038,"O=C(Nc1cccc(Cl)c1)c1cnc(N2CCCCC2)c(Cl)c1 [Example 163, 3′-Chloro-3,4,5,6-tetrahydro-2H-[1,2′]bipyridinyl-5′-carboxylicacid (3-chloro-phenyl)-amide]"
13,0.03,"COc1cccc(NC(=O)c2ccc(F)c(C(F)(F)F)c2)c1 [Example 73, 4-Fluoro-N-(3-methoxy-phenyl)-3-trifluoromethyl-benzamide]"
14,0.06,"O=C(Nc1cccc(Cl)c1)c1ccc(Cl)c(Cl)c1 [Example 218, 3,3′,4-Trichlorobenzanilide]"
